Source: publication PMC12612871, “Novel 1,3-Diazepines as Nontoxic Corrosion Inhibitors” (ACS Omega, 2025)
Like-named read-outs stand apart in the source and are kept apart here.

Experiments:
[1] = Mass loss (gravimetric) corrosion inhibition test; details: 2 mmol L–1 inhibitor, 5% (v/v) DMSO in HCl 1 mol L–1, 4 h immersion, relative to solution without inhibitor
Procedure: SAE 1020 steel plates, with a composition of C (0.18–0.23%), Mn (0.3–0.6%), P (0.03%), and S (0.05%), and dimensions of 2.5 × 2.5 × 0.13 cm, were polished sequentially using emery papers of increasing grit sizes (150, 220, 320, 400 and 600). After polishing, the plates were thoroughly rinsed with deionized (Milli-Q) water.
A control solution was prepared by dissolving 5% (v/v) dimethyl sulfoxide in HCl 1 mol L^–1. Inhibitor-containing solutions were prepared by adding 2 mmol L^–1 of the inhibitor to 5% (v/v) dimethyl sulfoxide in HCl 1 mol L^–1 using deionized (Milli-Q) water. SAE 1020 steel plates were immersed in these solutions for a duration of 4 h.
The gravimetric method was employed to evaluate corrosion resistance by weighing the steel plates before and after immersion in the aqueous HCl solution. The mass loss (w) was calculated as the difference between the average initial mass (m i) and final mass (m f) of each plate (eq ). This information was subsequently used to determine the inhibition efficiency (IE) according to eq , where w 0 and w represent the mass losses in the absence and presence of the inhibitor, respectively. All measurements were performed in triplicate to ensure accuracy and reliability, and the reported values correspond to the average of these three determinations. , 5 w=[…] 6 IE(%)=(w^0−w)/w^0.100

[2] = tested on: A549 human lung carcinoma cell line; test: MTT cell viability assay, A549; format: cell-based; details: 0.01 to 100 μM, read-out: IC50 (μM) ± S.D A549
Procedure: (§1) The MDA-MB-231 human breast adenocarcinoma cell line (ATCC HTB-26), A549 human lung carcinoma cell line (ATCC CCL-185), TOV-21G human ovarian adenocarcinoma cell line (ATCC CRL-11730), and WI-26VA4 human lung fibroblast cell line (ATCC CCL-95.1) were cultured in RPMI-1640 medium supplemented with 10% fetal bovine serum (FBS) and gentamicin (100 μg/mL). Cells were maintained at 37 °C in a humidified atmosphere containing 5% CO2.
(§2) Cell viability was assessed using the MTT assay (3-[4,5-dimethylthiazol-2-yl]-2,5-diphenyl-tetrazolium bromide). Briefly, 100 μL of complete medium containing 1 × 10^4 cells was added to each well of a 96-well tissue culture plate. Cells were incubated at 37 °C in a humidified atmosphere with 5% CO2 for 24 h prior to treatment. Following medium removal, 100 μL of fresh medium containing the test compounds at concentrations ranging from 0.01 to 100 μM was added to each well, and cells were incubated for 48 h under the same conditions. All compounds were presolubilized in dimethyl sulfoxide (DMSO), and the final DMSO concentration in all treatments was maintained at ≤ 0.2% to avoid interference with cell viability.
(§3) After treatment, the medium was replaced with 100 μL of MTT solution (0.5 mg/mL) per well, followed by a 3 h incubation. Formazan crystals were dissolved by adding 100 μL of DMSO to each well, and absorbance was measured at 550 nm using a microplate reader (SpectraMax M5e, Molecular Devices, Sunnyvale, CA, USA). The percentage of growth inhibition was calculated as [1-(Abs of treated/Abs of control)]×100. All experiments were conducted in triplicate, and results are expressed as mean IC50 values, which were determined using OriginPro 8.0 software (OriginLab Corporation, Northampton, MA, USA).

[3] = tested on: MDA-MB-231 human breast adenocarcinoma cell line; test: MTT cell viability assay, MDA-MB-231; format: cell-based; details: 0.01 to 100 μM, read-out: IC50 (μM) ± S.D MDA-MB-231
Procedure: as §1, §2, §3

[4] = tested on: TOV-21G human ovarian adenocarcinoma cell line; test: MTT cell viability assay, TOV-21G; format: cell-based; details: 48 h, 0.01 to 100 μM, read-out: IC50 (μM) ± S.D TOV-21G
Procedure: as §1, §2, §3

[5] = tested on: WI-26VA4 human lung fibroblast cell line; test: MTT cell viability assay, WI-26VA4; format: cell-based; details: 0.01 to 100 μM, read-out: IC50 (μM) ± S.D WI-26VA4
Procedure: as §1, §2, §3

Row | Compound | IC50 ([2]; Homo sapiens, A549, 48 h) [µM] | IC50 ([3]; Homo sapiens, MDA-MB-231, 48 h) [µM] | IC50 ([4]; Homo sapiens, TOV21G) [µM] | IC50 ([2]; 48 h) [µM] | IC50 ([3]; 48 h) [µM] | IC50 [4] [µM] | IE (%) corrosion inhibition efficiency by mass loss [1] [%] | IC50 ([5]; Homo sapiens, WI26VA4, 48 h) [µM] | IC50 ([5]; 48 h) [µM]
1 | N#CC(C(=O)c1ccccc1)=C1NCCCCN1 [compound 14, 2-(1,3-Diazepan-2-ylidene)-3-oxo-3-phenylpropanenitrile] |  | > 100 | > 100 |  |  |  | 94 ± 2.5 | > 100 | 
2 | 2-(nitromethylene)-1,3-diazepine [compound 10] |  |  |  | > 100 | > 100 | > 100 | 91 ± 0.7 |  | > 100
3 | COC(=O)C(C#N)=C1NCCCCN1 [compound 12, Methyl 2-cyano-2-(1,3-diazepan-2-ylidene)-acetate] | > 100 | > 100 | > 100 |  |  |  | 92 ± 0.6 | > 100 | 

Further lines, with some results ahead:

Row | IC50 ([2]; Homo sapiens, A549, 48 h) [µM] | IC50 ([3]; Homo sapiens, MDA-MB-231, 48 h) [µM] | IC50 ([4]; Homo sapiens, TOV21G) [µM] | IC50 ([2]; 48 h) [µM] | IC50 ([3]; 48 h) [µM] | IC50 [4] [µM] | Compound | IE (%) corrosion inhibition efficiency by mass loss [1] [%] | IC50 ([5]; Homo sapiens, WI26VA4, 48 h) [µM] | IC50 ([5]; 48 h) [µM]
4 | > 100 | > 100 | > 100 |  |  |  | N#CC(C#N)=C1NCCCCN1 [compound 11, 2-(1,3-Diazepan-2-ylidene)-malononitrile] | 88 ± 0.9 | > 100 | 
5 | > 100 | > 100 | > 100 |  |  |  | CCOC(=O)C(C(=O)OCC)=C1NCCCCN1 [compound 13, Diethyl 2-(1,3-diazepan-2-ylidene)-malonate] | 19 ± 5.4 | > 100 | 
6 | 0.67 ± 0.4 | 2.6 ± 0.8 | 8.3 ± 4 |  |  |  | COc1cccc2c1C(=O)c1c(O)c3c(c(O)c1C2=O)C[C@@](O)(C(=O)CO)C[C@@H]3O[C@H]1C[C@H](N)[C@H](O)[C@H](C)O1 [doxorubicin, reference compound] |  | 7 ± 2 | 
